pIC50: −log10 of the molar value.
Key:
Homo sapiens [1] = species: Homo sapiens; experiment: In vitro inhibition of human platelet aggregation induced by 3 ug/ml collagen.; format: functional
Homo sapiens [2] = species: Homo sapiens; experiment: In vitro inhibition of human platelet aggregation induced by thromboxane mimetic U-46,619 at 0.3 uM.; format: functional, organism-based
[3] = target: T1, Proteinase-activated receptor 1 (Homo sapiens, UniProt P25116); experiment: In vitro displacement of [3H]S-(p-F-Phe)-homoarginine-K Y-NH2 (at a concentration of 10 nM) from thrombin receptor (PAR-1) on the membranes of CHRF-288-11 cells
T1 sequence (P25116 whole entry): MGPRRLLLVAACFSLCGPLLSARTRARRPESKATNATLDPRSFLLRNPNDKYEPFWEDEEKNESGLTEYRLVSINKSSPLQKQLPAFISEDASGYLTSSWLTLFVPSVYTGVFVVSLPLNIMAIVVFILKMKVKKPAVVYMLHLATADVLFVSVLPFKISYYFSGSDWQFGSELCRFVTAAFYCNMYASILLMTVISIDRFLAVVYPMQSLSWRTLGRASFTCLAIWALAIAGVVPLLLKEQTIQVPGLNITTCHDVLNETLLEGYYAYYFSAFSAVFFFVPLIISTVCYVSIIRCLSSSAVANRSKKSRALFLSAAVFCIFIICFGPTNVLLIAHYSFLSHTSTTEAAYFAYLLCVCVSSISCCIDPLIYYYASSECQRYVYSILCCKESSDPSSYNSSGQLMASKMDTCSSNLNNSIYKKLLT

Homo sapiens [4] = species: Homo sapiens; experiment: In vitro inhibition of human platelet aggregation induced by collagen (at a concentration of 3 ug/mL); IA means Inactive at 50 uM; format: functional
Homo sapiens [5] = species: Homo sapiens; experiment: In vitro inhibition of human platelet aggregation induced by thromboxane mimetic U-46,619 (at a concentration of 0.3 uM); format: functional
Homo sapiens [6] = species: Homo sapiens; experiment: In vitro inhibition of human platelet aggregation induced by SFLLRN-NH2 (at a concentration of 2 uM); IA means Inactive at 50 uM; format: functional
Homo sapiens [7] = species: Homo sapiens; experiment: In vitro inhibition of human platelet aggregation induced by collagen (at a concentration of 3 ug/mL); In active at 50 uM concentration; format: functional
Homo sapiens [8] = species: Homo sapiens; experiment: In vitro inhibition of human platelet aggregation induced by thromboxane mimetic U-46,619 (at a concentration of 0.3 uM concentration; format: functional

pIC50 (Homo sapiens [1])	IC50 (Homo sapiens [2])	pIC50 [3]	IC50 (Homo sapiens [4])	pIC50 (Homo sapiens [5])	IC50 (Homo sapiens [6])	IC50 (Homo sapiens [7])	IC50 (Homo sapiens [8])	SMILES
4.69	Not Active	6.10	–	–	–	–	–	Cc1ccccc1Cn1cc(CN2CCCC2)c2ccc(NC(=O)N[C@@H](Cc3ccc([N+](=O)[O-])cc3)C(=O)N[C@@H](CCCN=C(N)N)C(=O)NCc3ccccc3)cc21
–	Not Active	5.66	Not Active	–	–	–	–	COc1ccc(C[C@H](NC(=O)Nc2ccc3c(CN4CCCC4)cn(Cc4ccc(F)cc4)c3c2)C(=O)N[C@@H](CCCN=C(N)N)C(=O)NCc2ccccc2)cc1
4.79	–	–	–	4.67	–	–	–	COc1ccc(C[C@H](NC(=O)Nc2ccc3c(CN4CCCC4)cn(Cc4ccc(F)cc4)c3c2)C(=O)N[C@@H](CCCN=C(N)N)C(=O)NCCCc2ccccc2)cc1
–	Not Active	5.74	Not Active	–	–	–	–	NC(=O)CCC(NC(=O)[C@H](Cc1ccc(F)c(F)c1)NC(=O)Nc1ccc2c(CN3CCCC3)cn(Cc3c(Cl)cccc3Cl)c2c1)C(=O)NCc1ccccc1 (some centres undefined)
4.48	–	5.25	–	4.36	–	–	–	COc1ccc(C[C@H](NC(=O)Nc2ccc3c(CN4CCCCC4)cn(Cc4ccc(OC(F)(F)F)cc4)c3c2)C(=O)N[C@@H](CCCNC(=N)N)C(=O)NCC2CCCCC2)cc1
–	Not Active	5.46	Not Active	–	Not Active	–	–	COC(=O)c1ccc(Cn2cc(CN3CCCC3)c3ccc(NC(=O)N[C@@H](Cc4ccc(OC)cc4)C(=O)N[C@@H](CCCN=C(N)N)C(=O)NCC4CCCCC4)cc32)cc1
4.58	–	–	–	4.58	–	–	–	COc1ccc(C[C@H](NC(=O)Nc2ccc3c(CN4CCCCC4)cn(Cc4ccc(F)cc4)c3c2)C(=O)N[C@@H](CCCN=C(N)N)C(=O)NCC2CCCCC2)cc1
4.39	–	5.60	–	4.48	–	–	–	COc1ccc(C[C@H](NC(=O)Nc2ccc3c(CN4CCCC4)cn(Cc4ccc(OC(F)(F)F)cc4)c3c2)C(=O)N[C@@H](CCCNC(=N)N)C(=O)NCC2CCCCC2)cc1
4.78	Not Active	5.96	–	–	–	–	–	N=C(N)NCCC[C@H](NC(=O)[C@H](Cc1ccc([N+](=O)[O-])cc1)NC(=O)Nc1ccc2c(CN3CCCC3)cn(Cc3ccc(F)cc3)c2c1)C(=O)NCc1ccccc1
4.43	Not Active	6.04	–	–	–	–	–	NCC(NC(=O)[C@H](Cc1ccc(F)c(F)c1)NC(=O)Nc1ccc2c(CN3CCCC3)cn(Cc3c(Cl)cccc3Cl)c2c1)C(=O)NCc1ccccc1 (some centres undefined)
–	Not Active	–	Not Active	–	–	–	–	N#Cc1ccc(C[C@H](NC(=O)Nc2ccc3c(CN4CCCC4)cn(Cc4c(Cl)cccc4Cl)c3c2)C(=O)N[C@@H](CCCNC(=N)N)C(=O)NCc2ccccc2)cc1
4.47	Not Active	5.89	–	–	–	–	–	O=C(Nc1ccc2c(CN3CCCC3)cn(Cc3c(Cl)cccc3Cl)c2c1)N[C@@H](Cc1ccc(F)c(F)c1)C(=O)NC(Cc1c[nH]cn1)C(=O)NCc1ccccc1 (some centres undefined)
4.56	–	5.49	–	4.44	–	–	–	COc1ccc(C[C@H](NC(=O)Nc2ccc3c(CN4CCCCC4)cn(Cc4cccc(C)c4)c3c2)C(=O)N[C@@H](CCCNC(=N)N)C(=O)NCC2CCCCC2)cc1
–	Not Active	6.62	Not Active	–	–	–	–	NC(=O)NCCCC(NC(=O)[C@H](Cc1ccc(F)c(F)c1)NC(=O)Nc1ccc2c(CN3CCCC3)cn(Cc3c(Cl)cccc3Cl)c2c1)C(=O)NCc1ccccc1 (some centres undefined)
–	Not Active	4.95	Not Active	–	–	–	–	CSCCC(NC(=O)[C@H](Cc1ccc(F)c(F)c1)NC(=O)Nc1ccc2c(CN3CCCC3)cn(Cc3c(Cl)cccc3Cl)c2c1)C(=O)NCc1ccccc1 (some centres undefined)
4.92	–	6.42	–	4.35	–	–	–	COc1ccc(C[C@H](NC(=O)Nc2ccc3c(CN4CCCC4)cn(Cc4ccccc4Cl)c3c2)C(=O)N[C@@H](CCCN=C(N)N)C(=O)NCCCc2ccccc2)cc1
4.89	Not Active	6.14	–	–	–	–	–	COc1ccc(C[C@H](NC(=O)Nc2ccc3c(CN4CCCCC4)cn(Cc4ccccc4C)c3c2)C(=O)N[C@@H](CCCN=C(N)N)C(=O)NCCCc2ccccc2)cc1
–	–	6.36	–	–	–	Not Active	Not Active	NCCC(NC(=O)[C@H](Cc1ccc(F)c(F)c1)NC(=O)Nc1ccc2c(CN3CCCC3)cn(Cc3c(Cl)cccc3Cl)c2c1)C(=O)NCc1ccccc1 (some centres undefined)
4.77	Not Active	5.60	–	–	–	–	–	CCN(CC)Cc1cn(Cc2ccccc2C)c2cc(NC(=O)N[C@@H](Cc3ccc(OC)cc3)C(=O)N[C@@H](CCCN=C(N)N)C(=O)NCCCc3ccccc3)ccc12
4.92	–	6.00	–	4.35	–	–	–	COc1ccc(C[C@H](NC(=O)Nc2ccc3c(CN4CCCC4)cn(Cc4ccccc4C)c3c2)C(=O)N[C@@H](CCCN=C(N)N)C(=O)NCCCc2ccccc2)cc1
4.42	–	5.59	–	4.90	–	–	–	COc1ccc(C[C@H](NC(=O)Nc2ccc3c(CN4CCCC4)cn(Cc4ccc(F)cc4)c3c2)C(=O)N[C@@H](CCCN=C(N)N)C(=O)NCC2CCCCC2)cc1
4.67	–	6.52	–	4.38	–	–	–	NCCCC[C@H](NC(=O)[C@H](Cc1ccc(F)c(F)c1)NC(=O)Nc1ccc2c(CN3CCCC3)cn(Cc3c(Cl)cccc3Cl)c2c1)C(=O)NCc1ccccc1
4.99	Not Active	5.59	–	–	–	–	–	CCN(CC)Cc1cn(Cc2cccc(C)c2)c2cc(NC(=O)N[C@@H](Cc3ccc(OC)cc3)C(=O)N[C@@H](CCCN=C(N)N)C(=O)NCCCc3ccccc3)ccc12
4.59	Not Active	5.19	–	–	–	–	–	Cc1ccccc1Cn1cc(CN2CCCC2)c2ccc(NC(=O)N[C@@H](Cc3ccc(C#N)cc3)C(=O)N[C@@H](CCCN=C(N)N)C(=O)NCc3ccccc3)cc21
–	Not Active	–	Not Active	–	–	–	–	COc1ccc(C[C@H](NC(=O)Nc2ccc3c(CN4CCC4)cn(Cc4ccc(F)cc4)c3c2)C(=O)N[C@@H](CCCN=C(N)N)C(=O)NCc2ccccc2)cc1
4.80	Not Active	6.30	–	–	–	–	–	NCCC[C@H](NC(=O)[C@H](Cc1ccc(F)c(F)c1)NC(=O)Nc1ccc2c(CN3CCCC3)cn(Cc3c(Cl)cccc3Cl)c2c1)C(=O)NCc1ccccc1
4.59	–	5.51	–	4.40	–	–	–	CCN(CC)Cc1cn(Cc2ccc(F)cc2)c2cc(NC(=O)N[C@@H](Cc3ccc(OC)cc3)C(=O)N[C@@H](CCCN=C(N)N)C(=O)NCC3CCCCC3)ccc12

SMILES	pIC50 (Homo sapiens [1])	IC50 (Homo sapiens [2])	pIC50 [3]	IC50 (Homo sapiens [4])	pIC50 (Homo sapiens [5])	IC50 (Homo sapiens [6])	IC50 (Homo sapiens [7])	IC50 (Homo sapiens [8])
N=C(N)NCCC[C@H](NC(=O)[C@H](Cc1ccc(F)c(F)c1)NC(=O)Nc1ccc2c(CN3CCCC3)cn(Cc3c(Cl)cccc3Cl)c2c1)C(=O)NCc1ccccc1	–	Not Active	6.09	Not Active	–	–	–	–
COc1ccc(C[C@H](NC(=O)Nc2ccc3c(CN4CCCC4)cn(Cc4c(Cl)cccc4Cl)c3c2)C(=O)N[C@@H](CCCNC(=N)N)C(=O)NCc2ccccc2)cc1 [RWJ-54003]	4.33	Not Active	5.89	–	–	–	–	–
